According to ChEMBL document CHEMBL1201862, “PubChem BioAssay data set” (2004):
Active and inactive are the calls of the source. Cut-off read from the data, not from the text of the source: actives have a measured IC50 and inactives only a lower limit.

Tests used:
Assay type in all cases: functional
Caspase-3 = molecular target: T1, Caspase-3 (Homo sapiens, UniProt P42574);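 note: Dose-response selectivity test against caspase-3 for candidate inhibitors of sentrin-specific proteases (SENPs)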
T1 sequence (P42574 whole entry): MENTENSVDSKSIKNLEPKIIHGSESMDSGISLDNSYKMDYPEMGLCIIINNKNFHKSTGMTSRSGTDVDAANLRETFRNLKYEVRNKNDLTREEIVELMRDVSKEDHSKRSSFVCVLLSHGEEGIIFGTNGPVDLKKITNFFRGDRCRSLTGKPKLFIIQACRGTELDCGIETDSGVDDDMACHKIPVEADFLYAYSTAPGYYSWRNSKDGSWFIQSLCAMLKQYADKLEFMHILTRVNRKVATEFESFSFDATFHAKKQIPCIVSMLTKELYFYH

[1] = molecular target: T2, Sentrin-specific protease 7 (Homo sapiens, UniProt Q9BQF6);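 note: Luminescence-based dose-response confirmation of ultra-high-throughput screening hits, measuring inhibition of SENP7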
T2 sequence (Q9BQF6 whole entry): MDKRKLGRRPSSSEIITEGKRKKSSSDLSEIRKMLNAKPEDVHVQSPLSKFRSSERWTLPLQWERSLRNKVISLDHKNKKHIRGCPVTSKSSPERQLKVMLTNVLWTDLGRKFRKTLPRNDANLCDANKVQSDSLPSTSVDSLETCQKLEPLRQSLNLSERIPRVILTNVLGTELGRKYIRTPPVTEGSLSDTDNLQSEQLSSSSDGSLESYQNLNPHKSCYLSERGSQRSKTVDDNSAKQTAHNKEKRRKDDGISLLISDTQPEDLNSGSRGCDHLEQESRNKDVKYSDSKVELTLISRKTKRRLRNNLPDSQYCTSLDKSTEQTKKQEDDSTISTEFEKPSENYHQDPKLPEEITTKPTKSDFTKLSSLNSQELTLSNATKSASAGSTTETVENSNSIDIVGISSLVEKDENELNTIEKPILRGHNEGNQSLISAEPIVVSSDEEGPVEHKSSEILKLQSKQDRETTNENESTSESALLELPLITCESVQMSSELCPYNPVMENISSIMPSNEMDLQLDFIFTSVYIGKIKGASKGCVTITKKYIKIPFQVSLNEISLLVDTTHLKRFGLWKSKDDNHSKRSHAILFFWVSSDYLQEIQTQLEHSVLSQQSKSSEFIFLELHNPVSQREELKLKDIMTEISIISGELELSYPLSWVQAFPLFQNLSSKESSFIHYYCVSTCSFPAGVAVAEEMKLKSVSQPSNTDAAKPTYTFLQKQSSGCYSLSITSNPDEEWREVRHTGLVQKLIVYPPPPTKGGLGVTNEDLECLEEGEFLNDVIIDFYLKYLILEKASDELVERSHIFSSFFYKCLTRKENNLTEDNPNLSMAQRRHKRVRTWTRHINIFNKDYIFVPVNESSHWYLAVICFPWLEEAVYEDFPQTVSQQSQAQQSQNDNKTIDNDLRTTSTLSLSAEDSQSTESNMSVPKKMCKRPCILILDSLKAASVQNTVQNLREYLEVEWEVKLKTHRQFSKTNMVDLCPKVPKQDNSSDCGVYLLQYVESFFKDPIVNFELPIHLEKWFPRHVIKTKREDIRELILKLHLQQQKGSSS

[2] = molecular target: T3, Sentrin-specific protease 6 (Homo sapiens, UniProt Q9GZR1);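 note: Luminescence-based dose-response confirmatory assay of SENP6 inhibition, following up an ultra-high-throughput screen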
T3 sequence (Q9GZR1 whole entry): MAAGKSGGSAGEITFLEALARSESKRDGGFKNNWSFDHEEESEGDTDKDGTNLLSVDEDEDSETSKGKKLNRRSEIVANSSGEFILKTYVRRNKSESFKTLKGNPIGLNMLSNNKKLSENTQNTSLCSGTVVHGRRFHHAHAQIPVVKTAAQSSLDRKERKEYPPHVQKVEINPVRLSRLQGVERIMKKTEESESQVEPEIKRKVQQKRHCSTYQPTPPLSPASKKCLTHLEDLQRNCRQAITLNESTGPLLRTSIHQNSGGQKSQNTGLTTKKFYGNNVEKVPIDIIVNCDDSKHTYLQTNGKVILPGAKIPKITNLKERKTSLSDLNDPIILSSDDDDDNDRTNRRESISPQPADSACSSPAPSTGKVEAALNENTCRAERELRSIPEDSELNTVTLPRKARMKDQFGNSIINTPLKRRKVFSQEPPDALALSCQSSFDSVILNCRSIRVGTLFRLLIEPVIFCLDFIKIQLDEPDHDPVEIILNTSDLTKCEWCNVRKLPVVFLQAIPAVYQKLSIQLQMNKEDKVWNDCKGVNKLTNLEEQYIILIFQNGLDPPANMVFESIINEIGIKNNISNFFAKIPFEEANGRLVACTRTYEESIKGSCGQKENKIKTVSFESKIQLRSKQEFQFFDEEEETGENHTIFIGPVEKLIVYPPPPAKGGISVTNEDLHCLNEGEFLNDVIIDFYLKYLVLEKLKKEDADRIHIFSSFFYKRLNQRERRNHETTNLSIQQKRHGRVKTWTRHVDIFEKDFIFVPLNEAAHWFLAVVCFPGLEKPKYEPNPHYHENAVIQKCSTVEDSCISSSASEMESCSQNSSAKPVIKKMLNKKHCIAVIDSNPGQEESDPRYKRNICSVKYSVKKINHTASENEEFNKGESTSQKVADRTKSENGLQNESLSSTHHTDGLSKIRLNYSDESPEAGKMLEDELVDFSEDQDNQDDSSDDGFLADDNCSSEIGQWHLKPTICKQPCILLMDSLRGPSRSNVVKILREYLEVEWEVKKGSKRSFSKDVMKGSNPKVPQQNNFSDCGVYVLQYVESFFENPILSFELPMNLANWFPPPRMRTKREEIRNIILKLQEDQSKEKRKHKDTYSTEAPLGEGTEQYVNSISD

[3] = molecular target: T4, Sentrin-specific protease 8 (Homo sapiens, UniProt Q96LD8);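 note: luminescence read-out of SENP8 inhibition, dose-response confirmation following an ultra-high-throughput screen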
T4 sequence (Q96LD8 whole entry): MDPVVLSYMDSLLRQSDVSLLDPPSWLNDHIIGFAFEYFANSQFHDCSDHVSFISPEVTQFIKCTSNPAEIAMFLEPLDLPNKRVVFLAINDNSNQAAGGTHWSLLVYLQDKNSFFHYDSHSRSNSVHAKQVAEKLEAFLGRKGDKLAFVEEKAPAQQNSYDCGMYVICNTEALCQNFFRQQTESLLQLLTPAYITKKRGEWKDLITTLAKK

Measured: IC50

O=c1[nH]c(N2CCOCC2)cc2ccccc12
active: Caspase-3 1.59 µM | [1] 1.96 µM | [2] < 1.55 µM | [3] 2.12 µM

O=C1c2ccccc2C(=O)C12OC2c1cccc2ccccc12 (configuration not stated)
active: Caspase-3 91.9 µM | [1] 2.86 µM | [2] 2.37 µM | [3] 4.53 µM

CCC(COC)Oc1cc(NCc2ccccc2)c2ncn(C(C)C)c2c1 (configuration not stated)
active: Caspase-3 6.47 µM | [1] 5.61 µM | [2] 3.62 µM | [3] 4.26 µM
